Literature values, collected in PMC9516532, “A genetically encoded BRET-based SARS-CoV-2 M^pro protease activity sensor” (Communications Chemistry, 2022).

System: P-gp
Conditions: reviewer's comment; ref ACS Infect. Dis. 2021, 7, 3, 586–597

CC(C)C[C@H](NC(=O)OCc1ccccc1)C(=O)N[C@@H](C[C@@H]1CCNC1=O)C(O)S(=O)(=O)[O-].[Na+] (stereo partly shown) [GC376]
P-gp substrate: known substrate of P-gp
